Source: ChEMBL document CHEMBL3621041, “Optimization of a Novel Binding Motif to (E)-3-(3,5-Difluoro-4-((1R,3R)-2-(2-fluoro-2-methylpropyl)-3-methyl-2,3,4,9-tetrahydro-1H-pyrido[3,4-b]indol-1-yl)phenyl)acrylic Acid (AZD9496), a Potent and Orally Bioavailable Selective Estrogen Receptor Downregulator and Antagonist” (J Med Chem, 2015)
In brackets after ≈: the same amount, converted by molar mass. Activity calls are given as the source filed them. The rule behind the calls is not given here.

Legend:
[1] = Volume of distribution at steady state in Han Wistar rat at 5 umol/kg, iv and 13 umol/kg, po; format: ADME, organism-based; details: in vivo, read-out: Vdss
[2] = Volume of distribution at steady state in Alderley Park beagle dog at 2.5 umol/kg, iv and 5 umol/kg, po; format: ADME, organism-based, Canis lupus familiaris; details: in vivo, read-out: Vdss
[3] = Intrinsic clearance in human cryopreserved hepatocytes assessed per 10^6 cells; format: ADME, cell-based, Hepatocyte; details: read-out: CLH
[4] = Lipophilicity, log D of the compound at pH 7.4; format: physicochemical; details: buffer
[5] = target: T1, Progesterone receptor (Homo sapiens, UniProt P06401); assay: Agonist activity at progesterone receptor in human MCF7 cells; format: cell-based
T1 sequence (P06401 whole entry): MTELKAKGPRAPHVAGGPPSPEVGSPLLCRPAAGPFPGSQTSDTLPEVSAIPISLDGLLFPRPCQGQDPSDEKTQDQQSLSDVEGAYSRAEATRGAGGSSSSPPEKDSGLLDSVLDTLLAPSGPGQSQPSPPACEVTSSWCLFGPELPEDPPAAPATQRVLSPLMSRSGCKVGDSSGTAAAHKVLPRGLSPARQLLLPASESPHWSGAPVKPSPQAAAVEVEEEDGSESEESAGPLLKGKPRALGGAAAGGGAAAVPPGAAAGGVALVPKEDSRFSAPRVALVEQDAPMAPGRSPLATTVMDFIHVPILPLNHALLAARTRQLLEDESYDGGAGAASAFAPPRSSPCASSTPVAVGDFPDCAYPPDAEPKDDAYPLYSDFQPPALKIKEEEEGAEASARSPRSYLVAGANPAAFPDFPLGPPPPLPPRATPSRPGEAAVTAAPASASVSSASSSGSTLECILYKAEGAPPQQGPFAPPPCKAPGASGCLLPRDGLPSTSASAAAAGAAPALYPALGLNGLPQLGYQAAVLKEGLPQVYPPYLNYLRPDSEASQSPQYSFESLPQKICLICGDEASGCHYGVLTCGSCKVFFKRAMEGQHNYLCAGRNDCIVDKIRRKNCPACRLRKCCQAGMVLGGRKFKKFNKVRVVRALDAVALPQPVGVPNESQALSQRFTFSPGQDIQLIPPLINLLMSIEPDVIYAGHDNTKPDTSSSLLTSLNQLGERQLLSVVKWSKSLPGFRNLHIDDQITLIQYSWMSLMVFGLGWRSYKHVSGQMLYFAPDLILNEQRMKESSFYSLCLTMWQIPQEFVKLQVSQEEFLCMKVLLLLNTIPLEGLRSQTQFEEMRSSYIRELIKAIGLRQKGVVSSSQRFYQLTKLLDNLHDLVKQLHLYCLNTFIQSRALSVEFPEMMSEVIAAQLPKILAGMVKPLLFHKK

[6] = Clearance in CD1 mouse at 5 umol/kg, iv and 13 umol/kg, po; format: ADME, organism-based; details: in vivo
[7] = target: T2, Estrogen receptor (Homo sapiens, UniProt P03372)
T2 sequence (P03372 whole entry): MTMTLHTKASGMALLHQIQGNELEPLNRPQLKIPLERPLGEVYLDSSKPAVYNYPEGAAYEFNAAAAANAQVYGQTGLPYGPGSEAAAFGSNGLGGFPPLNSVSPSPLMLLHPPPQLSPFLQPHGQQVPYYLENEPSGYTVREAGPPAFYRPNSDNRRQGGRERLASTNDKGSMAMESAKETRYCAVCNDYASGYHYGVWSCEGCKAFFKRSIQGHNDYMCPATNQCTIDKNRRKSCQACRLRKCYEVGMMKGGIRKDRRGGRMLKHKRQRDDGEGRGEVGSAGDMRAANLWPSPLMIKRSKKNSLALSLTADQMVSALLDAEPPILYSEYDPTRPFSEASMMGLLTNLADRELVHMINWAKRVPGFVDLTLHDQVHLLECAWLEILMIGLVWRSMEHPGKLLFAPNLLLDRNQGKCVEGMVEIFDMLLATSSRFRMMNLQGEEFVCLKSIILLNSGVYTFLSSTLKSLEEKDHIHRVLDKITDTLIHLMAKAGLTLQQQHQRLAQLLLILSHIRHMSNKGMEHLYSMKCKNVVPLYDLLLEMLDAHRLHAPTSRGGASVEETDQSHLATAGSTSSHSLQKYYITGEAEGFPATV
Description: Binding affinity to ERalpha receptor (unknown origin)

[8] = target: T2, Estrogen receptor; remark: listed apart in the source
Description: Antagonist activity at ERalpha receptor in human MCF7 cells

[9] = Fraction unbound in Han Wistar rat 10% plasma by equilibrium dialysis; format: ADME, cell-free
[10] = Thermodynamic solubility of the compound in 0.1 M phosphate buffer at pH 7.4 after 24 hrs; format: physicochemical; details: read-out: Therm_solubility
[11] = Clearance in Alderley Park beagle dog at 2.5 umol/kg, iv and 5 umol/kg, po; format: ADME, organism-based, Canis lupus familiaris; details: in vivo
[12] = Oral bioavailability in Alderley Park beagle dog at 5 umol/kg; format: ADME, organism-based, Canis lupus familiaris; details: in vivo
[13] = Intrinsic clearance in rat cryopreserved hepatocytes assessed per 10^6 cells; format: ADME, cell-based, Hepatocyte; details: read-out: CLH
[14] = test system: MCF7; assay: cells; details: Homo sapiens, MCF7, read-out: pIC50 (converted)
Description: Antiproliferative activity against human MCF7 cells

[15] = Oral bioavailability in CD1 mouse at 13 umol/kg; format: ADME, organism-based; details: in vivo
[16] = Volume of distribution at steady state in CD1 mouse at 5 umol/kg, iv and 13 umol/kg, po; format: ADME, organism-based; details: in vivo, read-out: Vdss
[17] = Fraction unbound in human 10% plasma by equilibrium dialysis; format: ADME, cell-free
[18] = Oral bioavailability in Han Wistar rat at 13 umol/kg; format: ADME, organism-based; details: in vivo
[19] = Clearance in Han Wistar rat at 5 umol/kg, iv and 13 umol/kg, po; format: ADME, organism-based; details: in vivo
[20] = Volume of distribution at steady state in Han Wistar rat at 2.2 umol/kg, iv and 4.5 umol/kg, po; format: ADME, organism-based; details: in vivo, read-out: Vdss
[21] = target: T3, Androgen receptor (Homo sapiens, UniProt P10275); assay: Binding affinity to androgen receptor (unknown origin); details: read-out: IC50
T3 sequence (P10275 whole entry): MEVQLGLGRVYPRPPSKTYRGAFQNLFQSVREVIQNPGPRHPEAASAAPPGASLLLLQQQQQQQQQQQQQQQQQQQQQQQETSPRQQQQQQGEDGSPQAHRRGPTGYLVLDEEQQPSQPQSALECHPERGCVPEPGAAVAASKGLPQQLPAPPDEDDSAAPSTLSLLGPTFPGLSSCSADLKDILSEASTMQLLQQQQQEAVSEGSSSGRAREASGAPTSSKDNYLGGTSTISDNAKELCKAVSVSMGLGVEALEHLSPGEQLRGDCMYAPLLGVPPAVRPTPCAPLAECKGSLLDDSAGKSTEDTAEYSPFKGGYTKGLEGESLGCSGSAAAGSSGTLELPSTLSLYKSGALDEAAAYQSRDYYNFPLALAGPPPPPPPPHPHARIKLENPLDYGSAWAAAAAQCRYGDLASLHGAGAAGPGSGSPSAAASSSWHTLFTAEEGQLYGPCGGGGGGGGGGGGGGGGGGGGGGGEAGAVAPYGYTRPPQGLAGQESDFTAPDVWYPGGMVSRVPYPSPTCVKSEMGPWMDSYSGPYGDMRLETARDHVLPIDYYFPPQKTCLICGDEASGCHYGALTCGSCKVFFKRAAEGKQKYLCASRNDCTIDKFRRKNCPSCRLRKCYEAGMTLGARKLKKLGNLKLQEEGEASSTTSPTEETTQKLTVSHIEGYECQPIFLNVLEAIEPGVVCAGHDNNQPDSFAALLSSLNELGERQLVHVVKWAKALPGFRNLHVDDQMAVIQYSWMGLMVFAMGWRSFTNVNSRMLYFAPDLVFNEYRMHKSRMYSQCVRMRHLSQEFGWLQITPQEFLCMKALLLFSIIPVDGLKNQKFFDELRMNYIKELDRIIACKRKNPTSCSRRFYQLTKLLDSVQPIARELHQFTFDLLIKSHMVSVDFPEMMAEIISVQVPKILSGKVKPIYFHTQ

[22] = Oral bioavailability in SCID mouse at 5.6 umol/kg; format: ADME, organism-based; details: in vivo
[23] = test system: MCF7; assay: Antitumor activity against human MCF7 cells xenografted in mouse assessed as tumor regression at 5 mg/kg, po qd; format: functional, organism-based
[24] = target: T4, Glucocorticoid receptor (Homo sapiens, UniProt P04150); assay: Binding affinity to glucocorticoid receptor (unknown origin); details: read-out: IC50
T4 sequence (P04150 whole entry): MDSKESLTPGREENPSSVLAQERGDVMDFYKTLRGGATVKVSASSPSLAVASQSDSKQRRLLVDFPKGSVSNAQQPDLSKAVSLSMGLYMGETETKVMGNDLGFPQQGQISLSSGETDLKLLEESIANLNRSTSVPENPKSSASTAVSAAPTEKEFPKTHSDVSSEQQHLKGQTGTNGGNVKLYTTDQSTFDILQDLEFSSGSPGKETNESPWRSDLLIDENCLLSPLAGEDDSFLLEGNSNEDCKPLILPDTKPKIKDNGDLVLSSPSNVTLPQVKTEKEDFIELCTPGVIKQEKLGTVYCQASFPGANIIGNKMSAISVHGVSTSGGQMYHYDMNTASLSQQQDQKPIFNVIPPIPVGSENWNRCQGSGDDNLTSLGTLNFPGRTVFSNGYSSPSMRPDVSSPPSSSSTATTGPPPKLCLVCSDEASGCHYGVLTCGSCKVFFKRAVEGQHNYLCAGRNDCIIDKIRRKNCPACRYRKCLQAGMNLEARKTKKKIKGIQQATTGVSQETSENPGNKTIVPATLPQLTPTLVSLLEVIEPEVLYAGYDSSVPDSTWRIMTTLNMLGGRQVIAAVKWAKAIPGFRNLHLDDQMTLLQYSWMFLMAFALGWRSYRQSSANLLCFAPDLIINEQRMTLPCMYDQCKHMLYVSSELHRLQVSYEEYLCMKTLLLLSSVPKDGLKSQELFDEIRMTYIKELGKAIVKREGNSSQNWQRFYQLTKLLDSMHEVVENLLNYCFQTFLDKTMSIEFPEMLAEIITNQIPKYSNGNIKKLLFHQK

[25] = Clearance in Han Wistar rat at 2.2 umol/kg, iv and […] umol/kg, po; format: ADME, organism-based; details: in vivo
[26] = Oral bioavailability in Han Wistar rat at 4.5 umol/kg; format: ADME, organism-based; details: in vivo
[27] = Volume of distribution at steady state in SCID mouse at 2.3 umol/kg, iv and 5.6 umol/kg, po; format: ADME, organism-based; details: in vivo, read-out: Vdss
[28] = Clearance in SCID mouse at 2.3 umol/kg, iv and 5.6 umol/kg, po; format: ADME, organism-based; details: in vivo
[29] = test system: MCF7; assay: Antitumor activity against human MCF7 cells xenografted in mouse assessed as tumor growth inhibition administered orally daily once; format: functional

Vd [2] [L/kg]	hepatocyte CLint [3] [µL/min/1e6 cells]	logD [4]	fraction unbound [9]	solubility thermodynamic at 24 h [10] [µM]	clearance [11] [mL/min/kg]	bioavailability [12] [%]	hepatocyte CLint [13] [µL/min/1e6 cells]	IC50 [14] [nM]	fraction unbound [17]	SMILES	also measured
0.3	40	2.6	0.0069	> 1000	0.96	111	18	0.776	0.0051	CC(C)CN1[C@H](c2ccc(/C=C/C(=O)O)cc2)c2[nH]c3ccccc3c2C[C@H]1C	Vd [1]: 1.1 L/kg; IC50 [5]: > 100000 nM; clearance [6]: 21 mL/min/kg; IC50 [7]: 6.46 nM; IC50 [8]: 2.09 nM; bioavailability [15]: 86%; Vd [16]: 3.7 L/kg; bioavailability [18]: 80%; clearance [19]: 6.2 mL/min/kg
2.2	32	2.8	0.0037	110 (≈ 48.7 µg/mL)	0.28	79	4.2	0.0398	0.0026	C[C@@H]1Cc2c([nH]c3ccccc23)[C@@H](c2c(F)cc(/C=C/C(=O)O)cc2F)N1CC(C)(C)F [AZD-9496]	Vd [20]: 0.43 L/kg; IC50 [21]: 30000 nM; bioavailability [22]: 128%; Activity [23]: Active; IC50 [24]: 9200 nM; clearance [25]: 1 mL/min/kg; bioavailability [26]: 63%; Vd [27]: 2.2 L/kg; clearance [28]: 43 mL/min/kg; growth inhibition (GI) [29]: Dose-dependent effect
